Earlier results, collected in patent US4987122A, “Peptide compounds and medical method of use thereof” (Nycomed AS, priority 1986, dated 1991).
[ ]: non-standard residue; d: D form. pGlu = O=C1CC[C@@H](C(=O)O)N1

Tests used:
[1] = subjected to freezing and thawing; reversed by treatment with mercaptoethanol
granulopoiesis = settings: as reported in the European patent application

Substance | activity after freezing and thawing [1] | activity of the synthetic compound (granulopoiesis)
pyroGlu-Glu-Asp-Cys-LysOH ([pGlu]EDCK-OH; SMILES NCCCC[C@H](NC(=O)[C@H](CS)NC(=O)[C@H](CC(=O)O)NC(=O)[C@H](CCC(=O)O)NC(=O)[C@@H]1CCC(=O)N1)C(=O)O) | stimulatory activity | 
pyroGlu-Asp-Asp-Cys-LysOH ([pGlu]DDCK-OH; SMILES NCCCC[C@H](NC(=O)[C@H](CS)NC(=O)[C@H](CC(=O)O)NC(=O)[C@H](CC(=O)O)NC(=O)[C@@H]1CCC(=O)N1)C(=O)O) [synthetic compound with the structure postulated for the natural granulopoiesis factor] |  | inactive
